Assay results reported in PubChem BioAssay AID651868 (The Scripps Research Institute Molecular Screening Center, 2012).

Molecular target: Protein-arginine deiminase type-1 (Homo sapiens) (UniProt Q9ULC6)
Test: PubChem AID 651868
Settings: recombinant PAD1, citrulline colorimetric, time-dependent inactivation; active compounds read high

Sequence of Protein-arginine deiminase type-1 (Homo sapiens) (Q9ULC6 whole entry, looked up): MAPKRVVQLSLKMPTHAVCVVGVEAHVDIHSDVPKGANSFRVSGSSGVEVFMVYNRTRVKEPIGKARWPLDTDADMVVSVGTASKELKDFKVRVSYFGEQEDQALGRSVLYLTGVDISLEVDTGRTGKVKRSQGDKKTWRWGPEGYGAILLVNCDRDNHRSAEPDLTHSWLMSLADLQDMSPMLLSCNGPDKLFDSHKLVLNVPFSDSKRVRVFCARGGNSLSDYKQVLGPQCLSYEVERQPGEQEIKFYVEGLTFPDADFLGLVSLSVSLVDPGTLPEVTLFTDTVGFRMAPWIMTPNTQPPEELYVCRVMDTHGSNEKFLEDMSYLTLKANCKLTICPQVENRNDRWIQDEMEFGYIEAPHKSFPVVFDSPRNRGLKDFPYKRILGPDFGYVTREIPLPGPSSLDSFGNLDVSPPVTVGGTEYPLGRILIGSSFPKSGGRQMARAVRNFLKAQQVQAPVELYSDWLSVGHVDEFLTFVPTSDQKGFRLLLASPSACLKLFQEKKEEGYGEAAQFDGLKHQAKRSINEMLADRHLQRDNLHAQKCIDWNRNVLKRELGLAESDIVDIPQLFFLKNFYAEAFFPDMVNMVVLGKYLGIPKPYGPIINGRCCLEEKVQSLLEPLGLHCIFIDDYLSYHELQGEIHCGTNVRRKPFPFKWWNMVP

- kinact/KI: 58.3 M⁻¹ s⁻¹
Compound: NC1=CC(=O)c2ccc(-c3cccc(C(=O)O)n3)nc2C1=O
